# Columns and labels:
# Type in all cases: functional
# [1] = test system: NCI-H23; test: Cytotoxicity against human NCI-H23 cells assessed as cell growth at 7.25 uM after 48 hrs by SRB assay; details: NCI-H23, 48 h, read-out: Activity
# [2] = test system: M14; test: Cytotoxicity against human M14 cells assessed as cell growth at 7.25 uM after 48 hrs by SRB assay; details: M14, 48 h, read-out: Activity
# [3] = test system: MDA-MB-468; test: Cytotoxicity against human MDA-MB-468 cells assessed as cell growth at 7.25 uM after 48 hrs by SRB assay; details: MDA-MB-468, 48 h, read-out: Activity
# [4] = Cytotoxicity against human OVCAR8 cells assessed as cell growth at 7.25 uM after 48 hrs by SRB assay; details: OVCAR-8, 48 h, read-out: Activity
# [5] = test system: ACHN; test: Cytotoxicity against human ACHN cells assessed as cell growth at 7.25 uM after 48 hrs by SRB assay; details: read-out: Activity
# [6] = test system: U-251; test: Cytotoxicity against human U251 cells assessed as cell growth at 7.25 uM after 48 hrs by SRB assay; details: U-251, 48 h, read-out: Activity
# [7] = Cytotoxicity against human IGROV1 cells assessed as cell growth at 7.25 uM after 48 hrs by SRB assay; details: IGROV-1, 48 h, read-out: Activity
# [8] = Cytotoxicity against human RPMI8226 cells assessed as cell growth at 7.25 uM after 48 hrs by SRB assay; details: RPMI-8226, 48 h, read-out: Activity
# [9] = test system: K562; test: Cytotoxicity against human K562 cells assessed as cell growth at 7.25 uM after 48 hrs by SRB assay; details: K562, 48 h, read-out: Activity
# [10] = Cytotoxicity against human NCI-ADR-RES cells assessed as cell growth at 7.25 uM after 48 hrs by SRB assay; details: read-out: Activity
# [11] = Cytotoxicity against human LOXIMVI cells assessed as cell growth at 7.25 uM after 48 hrs by SRB assay; details: LOX IMVI, read-out: Activity
# [12] = test system: NCI-H322M; test: Cytotoxicity against human NCI-H322M cells assessed as cell growth at 7.25 uM after 48 hrs by SRB assay; details: read-out: Activity
# [13] = test system: HT-29; test: Cytotoxicity against human HT-29 cells assessed as cell growth at 7.25 uM after 48 hrs by SRB assay; details: HT-29, 48 h, read-out: Activity
# [14] = test system: Malme-3M; test: Cytotoxicity against human MALME-3M cells assessed as cell growth at 10 uM after 48 hrs by SRB assay; details: read-out: Activity
# [15] = test system: EKVX; test: Cytotoxicity against human EKVX cells assessed as cell growth at 10 uM after 48 hrs by SRB assay; details: read-out: Activity
# [16] = Cytotoxicity against human OVCAR4 cells assessed as cell growth at 10 uM after 48 hrs by SRB assay; details: OVCAR-4, 48 h, read-out: Activity
# [17] = test system: NCI-H522; test: Cytotoxicity against human NCI-H522 cells assessed as cell growth at 10 uM after 48 hrs by SRB assay; details: NCI-H522, 48 h, read-out: Activity
# [18] = test system: NCI-H23; test: Cytotoxicity against human NCI-H23 cells assessed as cell growth at 10 uM after 48 hrs by SRB assay; details: NCI-H23, 48 h, read-out: Activity
# [19] = test system: A498; test: Cytotoxicity against human A498 cells assessed as cell growth at 10 uM after 48 hrs by SRB assay; details: A498, 48 h, read-out: Activity
# [20] = test system: MDA-MB-435; test: Cytotoxicity against human MDA-MB-435 cells assessed as cell growth at 10 uM after 48 hrs by SRB assay; details: MDA-MB-435, 48 h, read-out: Activity
# [21] = Cytotoxicity against human HCT116 cells assessed as cell growth at 10 uM after 48 hrs by SRB assay; details: HCT-116, 48 h, read-out: Activity
# [22] = Cytotoxicity against human OVCAR8 cells assessed as cell growth at 10 uM after 48 hrs by SRB assay; details: OVCAR-8, 48 h, read-out: Activity
# [23] = Cytotoxicity against human SF268 cells assessed as cell growth at 10 uM after 48 hrs by SRB assay; details: SF-268, 48 h, read-out: Activity
# [24] = Cytotoxicity against human TK10 cells assessed as cell growth at 10 uM after 48 hrs by SRB assay; details: TK-10, 48 h, read-out: Activity
# [25] = test system: 786-0; test: Cytotoxicity against human 786-0 cells assessed as cell growth at 10 uM after 48 hrs by SRB assay; details: 786-0, 48 h, read-out: Activity
# [26] = Cytotoxicity against human COLO205 cells assessed as cell growth at 10 uM after 48 hrs by SRB assay; details: COLO 205, 48 h, read-out: Activity
# [27] = Cytotoxicity against human MOLT4 cells assessed as cell growth at 10 uM after 48 hrs by SRB assay; details: MOLT-4, 48 h, read-out: Activity
# [28] = Cytotoxicity against human HOP92 cells assessed as cell growth at 10 uM after 48 hrs by SRB assay; details: HOP-92, 48 h, read-out: Activity
# [29] = Cytotoxicity against human OVCAR3 cells assessed as cell growth at 2.13 uM after 48 hrs by SRB assay; details: OVCAR-3, 48 h, read-out: Activity
# [30] = Cytotoxicity against human HCT15 cells assessed as cell growth at 2.13 uM after 48 hrs by SRB assay; details: HCT-15, 48 h, read-out: Activity
# [31] = test system: ACHN; test: Cytotoxicity against human ACHN cells assessed as cell growth at 2.13 uM after 48 hrs by SRB assay; details: read-out: Activity
# [32] = test system: MCF7; test: Cytotoxicity against human MCF7 cells assessed as cell growth at 2.13 uM after 48 hrs by SRB assay; details: MCF7, 48 h, read-out: Activity
# [33] = Cytotoxicity against human BT549 cells assessed as cell growth at 2.13 uM after 48 hrs by SRB assay; details: BT-549, 48 h, read-out: Activity
# [34] = test system: MDA-MB-468; test: Cytotoxicity against human MDA-MB-468 cells assessed as cell growth at 2.13 uM after 48 hrs by SRB assay; details: MDA-MB-468, 48 h, read-out: Activity
# [35] = Cytotoxicity against human HOP62 cells assessed as cell growth at 2.13 uM after 48 hrs by SRB assay; details: HOP-62, 48 h, read-out: Activity
# [36] = Cytotoxicity against human SNB75 cells assessed as cell growth at 2.13 uM after 48 hrs by SRB assay; details: SNB-75, 48 h, read-out: Activity
# [37] = test system: A498; test: Cytotoxicity against human A498 cells assessed as cell growth at 2.13 uM after 48 hrs by SRB assay; details: A498, 48 h, read-out: Activity
# [38] = test system: NCI-H226; test: Cytotoxicity against human NCI-H226 cells assessed as cell growth at 2.13 uM after 48 hrs by SRB assay; details: NCI-H226, 48 h, read-out: Activity
# [39] = Cytotoxicity against human RPMI8226 cells assessed as cell growth at 2.13 uM after 48 hrs by SRB assay; details: RPMI-8226, 48 h, read-out: Activity
# [40] = test system: A549; test: Cytotoxicity against human A549 cells assessed as cell mortality at 2.13 uM after 48 hrs by SRB assay; details: A549, 48 h
smiles,measurement,setting,value
CCCCCCCCCCCCCCCC(=O)NCCCC[C@H](NC(=O)[C@H](C)NC(=O)[C@H](CCCCN)NC(=O)[C@H](C)NC(=O)[C@H](CC(C)C)NC(=O)[C@H](CCCCN)NC(=O)[C@H](C)NC(=O)[C@H](CC(C)C)NC(=O)[C@H](CCCCN)NC(=O)[C@H](CCCCN)NC(=O)[C@H](C)NC(=O)[C@H](CC(C)C)NC(=O)[C@H](CCCCN)NC(=O)[C@H](C)NC(=O)[C@H](CC(C)C)NC(=O)[C@H](CCCCN)NC(=O)[C@@H](N)CC(=O)O)C(N)=O,growth at 7.25 µM,[1],104%
same,growth at 7.25 µM,[2],102%
same,growth at 7.25 µM,[3],95.9%
same,growth at 7.25 µM,[4],96.4%
same,growth at 7.25 µM,[5],99.3%
same,growth at 7.25 µM,[6],91.3%
same,growth at 7.25 µM,[7],108%
same,growth at 7.25 µM,[8],103%
same,growth at 7.25 µM,[9],102%
same,growth at 7.25 µM,[10],111%
same,growth at 7.25 µM,[11],95.6%
same,growth at 7.25 µM,[12],108%
same,growth at 7.25 µM,[13],92.4%
CC(C)C[C@H](NC(=O)[C@H](CCCCN)NC(=O)[C@H](C)NC(=O)[C@H](CC(C)C)NC(=O)[C@H](CCCCN)NC(=O)[C@H](CCCCN)NC(=O)[C@H](C)NC(=O)[C@H](CC(C)C)NC(=O)[C@H](CCCCN)NC(=O)[C@H](C)NC(=O)[C@H](CC(C)C)NC(=O)[C@H](CCCCN)NC(=O)[C@@H](N)CC(=O)O)C(=O)N[C@@H](C)C(=O)N[C@@H](CCCCN)C(=O)N[C@@H](C)C(=O)N[C@@H](CCCCN)C(N)=O,growth at 10 µM,[14],107%
same,growth at 10 µM,[15],104%
same,growth at 10 µM,[16],109%
same,growth at 10 µM,[17],86.4%
same,growth at 10 µM,[18],103%
same,growth at 10 µM,[19],115%
same,growth at 10 µM,[20],108%
same,growth at 10 µM,[21],92.1%
same,growth at 10 µM,[22],101%
same,growth at 10 µM,[23],94.7%
same,growth at 10 µM,[24],94.4%
same,growth at 10 µM,[25],105%
same,growth at 10 µM,[26],114%
same,growth at 10 µM,[27],86.4%
same,growth at 10 µM,[28],86.1%
CCCCCCCCCCCCCCCCNCCO[C@H]1C[C@H](n2cc(C)c(=O)[nH]c2=O)O[C@@H]1C(=O)NCCCC[C@H](NC(=O)[C@H](C)NC(=O)[C@H](CCCCN)NC(=O)[C@H](C)NC(=O)[C@H](CC(C)C)NC(=O)[C@H](CCCCN)NC(=O)[C@H](C)NC(=O)[C@H](CC(C)C)NC(=O)[C@H](CCCCN)NC(=O)[C@H](CCCCN)NC(=O)[C@H](C)NC(=O)[C@H](CC(C)C)NC(=O)[C@H](CCCCN)NC(=O)[C@H](C)NC(=O)[C@H](CC(C)C)NC(=O)[C@H](CCCCN)NC(=O)[C@@H](N)CC(=O)O)C(N)=O,growth at 2.13 µM,[29],107%
same,growth at 2.13 µM,[30],104%
same,growth at 2.13 µM,[31],106%
same,growth at 2.13 µM,[32],98.9%
same,growth at 2.13 µM,[33],113%
same,growth at 2.13 µM,[34],100%
same,growth at 2.13 µM,[35],99.4%
same,growth at 2.13 µM,[36],96.1%
same,growth at 2.13 µM,[37],109%
same,growth at 2.13 µM,[38],96.5%
same,growth at 2.13 µM,[39],104%
same,mortality at 2.13 µM,[40],31%

# — ChEMBL document CHEMBL3822390, “Synthesis, characterization and anti-cancer activity of a peptide nucleolipid bioconjugate” (2016)
